The values below come from publication PMC9106797, “Formation and Identification of a 5-(Hydroxymethyl)-2-Furfural-Zingerone Condensate and Its Cytotoxicity in Caco-2 Cells” (Frontiers in Nutrition, 2022).

Several values for one entry are separate records, joined by “and”; a condition that tells them apart may be missing. Identical values can stand only once.

By IC50 is commonly meant the midpoint of a concentration-inhibition curve.

A short description of data set [1]: Cell viability assay (CCK-8). The note with it: human, Caco-2 cells, read-out: IC50, cytotoxicity against Caco-2 cells; for IC50 at 24 h: 24 h incubation; for IC50 at 48 h: 48 h incubation. It counts as cell-based. The procedure: The Caco-2 cell line (ATCC HTB-37) was obtained from the American Type Culture Collection (Rockville, MD, USA). Cells were cultivated by the method of Kosińska-Cagnazzo et al. ([30]) with slight modifications. Specifically, α-MEM medium supplemented with 10% FBS, 1% penicillin/streptomycin, and 1% NEAA was used to cultivate Caco-2 cells at 37°C and 5% (v/v) CO2 atmosphere. When the cells reached 80–90% confluence, they were detached with 0.25% trypsin-EDTA and further sub-cultured on fresh growth medium. Cells between passages 30 and 35 were used.
Cell viability was measured by the CCK-8 method as described by Zhao et al. ([31]) with modifications. Briefly, Caco-2 cells at a density of 2.5 × 10^4 cells/well were seeded into 96-well plates and maintained at 37°C under a humidified atmosphere containing 5% CO2 and 95% air for 24 h. Subsequently, the origin culture medium was removed, and different concentrations (2, 4, 8, 16, 32, and 64 mM) of HMZ and HMF were added. Three duplicate wells were set for each concentration. The cells were further incubated for 24 and 48 h, respectively. Then, 10 μL of CCK-8 solution was added into each well for 2 h, and the absorbance was read at 450 nm on a microplate reader (Multiskan, Thermo, USA).

The subject of the next data set is FVB/N mice. Also noted: method as in PMID 22349055. The note with it: FVB/N mice, 31.25, 62.5, 125 and 250 mg SMF/kg; cited from earlier work.
Data set [2] in a line: In vitro simulated digestion (mouth, gastric, intestinal stages), HPLC. It counts as in vitro ADME. Conditions: for decrease of HMZ content after digestion: 37°C. The procedure:
The adduct was subjected to in vitro simulated digestion at three stages, namely, the mouth, gastric, and intestinal stages, to evaluate its stability ([28], [29]). Briefly, HMZ (2 mg) was dissolved in DMSO (200 μL), diluted with ultra-pure water to the final concentration of 0.5 mg/mL, and then mixed with 6 mL of SSF in a flask. The mixture was magnetically stirred at 100 r/min for 2 min at 37°C to mimic saliva digestion. Afterward, 10 mL of SGF was added to simulate the gastric phase, and the mixture was reacted for 2 h under the same condition. Subsequently, 20 mL of SIF was added for the simulation of intestinal digestion for another 2 h. Samples (100 μL) were withdrawn at the end of each stage of the digestion process for HPLC analysis. Each digestion process was repeated in triplicate, and the content of HMZ was calculated by referring to the calibration curve.

Another data set relates to Caco-2 cells. The experiment in a line: Absorption of HMZ in Caco-2 cells (HPLC of treated solution). It counts as in vitro ADME. Conditions: 2 h, 37°C. As to the method: HMZ absorption was evaluated according to de Oliveira et al. with slight modifications ([32]). Briefly, Caco-2 cells were inoculated in 6-well plates at the density of 2 × 10^4 cells/well (2 mL) and cultured until 90% confluence at 37°C with 5% CO2. Then, the cells were washed thrice with 1 mL of HBSS. Another 1 mL of HBSS was added for further culture for 30 min. Ten microliters of HMZ solution (pH 7.4) at concentrations of 1–100 μM were added separately and cultivated for 2 h to allow the adduct solution to be absorbed by cells under certain condition (37°C, 5% CO2/95% air). The treated solution was transferred into Eppendorf tubes for HPLC analysis. The control of each sample under different concentrations was the respective sample without incubation, and each of the absorption rate of the adduct by Caco-2 cells was calculated as follows:
(1) Absorption rate (%) =S1−S2/S1× 100%
where S1 is the peak area of the control, and S2 is the peak area of the sample incubated for 2 h.

Data set [3] can be described thus: Effect of reaction temperature on HMZ amount (one-factor-at-a-time, HPLC). It counts as physicochemical. The note with it: temperature over 50°C, 3 h. As to the method:
A one-factor-at-a-time design was applied to estimate the effects of different reaction parameters on HMF elimination by ZGR, as well as the adduct formation between HMF and ZGR. ZGR/HMF in the molar ratio of 2: 1 was mixed in a three-necked flask and incubated at 40°C for different durations (0.5, 1.0, 1.5, 2.0, 2.5, and 3.0 h) to investigate the effect of reaction time. ZGR/HMF in the molar ratio of 2: 1 was mixed and reacted for 3 h at different temperature levels (20, 30, 40, 50, 60, and 70°C) to study the effect of temperature. In addition, temperature and reaction duration were kept constant at 40°C and 3 h, respectively, to evaluate the effect of different ZGR/HMF molar ratios (4: 1, 3: 1, 2: 1, 1: 1, and 1: 2). At the end of each reaction, 30 μL of the aqueous reaction mixture was diluted with methanol to a final volume of 500 μL for HPLC analysis. HMF and HMZ were quantified by comparing their peak areas to each standard curve.

In the case of `O=Cc1ccc(CO)o1` [HMF, 5-(Hydroxymethyl)-2-furfural], in data set [1], the concentration for half-maximal inhibition (IC50) at 24 h was 35.4 ± 4.03 mM and the IC50 at 48 h came out at 19.2 ± 2.1 mM.

As for `O=Cc1ccc(COS(=O)(=O)O)o1` [SMF, 5-sulfo-oxymethylfurfural], in the data set with FVB/N mice, the liver toxicity result is given as “hepatic lesions”.

Turning to `COc1cc(CCC(=O)/C=C/c2ccc(CO)o2)ccc1O` [HMZ], the “decrease of HMZ content after digestion” value in data set [2] (after SGF (simulated gastric fluid), further 2 h) was 14.19%; in data set [2] (after SIF (simulated intestinal fluid), further 2 h), 24.06%; in data set [2] (after SSF (simulated salivary fluid), 2 min) it was 7.14%. In addition, in data set [2] (three digestion conditions), the “stability in simulated in vitro digestion” value is “moderate level”. For the same compound, the half-inhibitory concentration (IC50) at 24 h in data set [1] was 41.5 ± 5.33 mM. Further, the IC50 at 48 h in data set [1] came out at 25.4 ± 3.12 mM. The absorption was 0.61 ± 0.75 ×10^-5 μmol with Caco-2 cells (HMZ 1 μM), 2.85 ± 0.03 ×10^-5 μmol in the data set with Caco-2 cells (HMZ 4 μM), 11.22 ± 0.03 ×10^-5 μmol with Caco-2 cells (HMZ 20 μM) and 34.71 ± 0.17 ×10^-5 μmol in the data set on Caco-2 cells (HMZ 100 μM). The absorption rate in the data set on Caco-2 cells (HMZ 1 μM) was 60.74% and 60.74 ± 7.51%; in the data set on Caco-2 cells (HMZ 4 μM), 71.38% and 71.38 ± 0.80%; in the data set on Caco-2 cells (HMZ 20 μM) it was 56.11% and 56.11 ± 1.85%; in the data set on Caco-2 cells (HMZ 100 μM), 34.71% and 34.71 ± 1.68%. The “thermal stability in the reaction mixture” value in data set [3] is “appeared to degrade”.
